Read-outs that look alike come from different tables or passages of the source. Values belong to the molecule of their own block, whether it stands above or below them.
Columns and labels:
tyrosinase = assay: Tyrosinase zymography; assay type: biochemical, mushroom; details: L-DOPA staining, compared to untreated control
mushroom tyrosinase [1] = molecular target: T1, mushroom tyrosinase (Agaricus bisporus, UniProt C7FF04); assay: Mushroom tyrosinase inhibition assay; assay type: biochemical; details: for inhibition at 30 µM: read-out: percent inhibition
mushroom tyrosinase [2] = molecular target: T1, mushroom tyrosinase; details: cited from earlier work

T1 sequence (C7FF04 1-392): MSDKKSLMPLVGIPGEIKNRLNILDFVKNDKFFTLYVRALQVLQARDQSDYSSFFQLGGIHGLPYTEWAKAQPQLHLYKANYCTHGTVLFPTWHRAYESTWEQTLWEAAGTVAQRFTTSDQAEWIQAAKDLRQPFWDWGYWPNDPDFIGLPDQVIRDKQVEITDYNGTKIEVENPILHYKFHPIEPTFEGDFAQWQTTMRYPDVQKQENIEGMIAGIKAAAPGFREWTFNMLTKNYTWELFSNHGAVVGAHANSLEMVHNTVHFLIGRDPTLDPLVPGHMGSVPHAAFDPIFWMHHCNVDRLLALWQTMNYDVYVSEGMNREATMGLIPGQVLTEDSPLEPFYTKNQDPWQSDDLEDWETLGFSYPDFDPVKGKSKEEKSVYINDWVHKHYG

band intensity on zymogram (inhibitory effect on tyrosinase activity) (tyrosinase): lightest bands
IC50 (mushroom tyrosinase [1]): 24.5 µM
Compound: CC(=O)Nc1ccc(N=Nc2c(N)nc(N)nc2Cl)cc1 [Compound 1d, N-(4-((2,4-diamino-6-chloropyrimidin-5-yl)diazenyl)phenyl) acetamide]

inhibition at 30 µM (mushroom tyrosinase [1]): 55.1%
Compound: COc1ccc(N=Nc2c(N)nc(N)nc2Cl)cc1 [Compound 1e, 6-chloro-5-((4-methoxyphenyl)diazenyl) pyrimidine-2,4-diamine]

band intensity on zymogram (inhibitory effect on tyrosinase activity) (tyrosinase): minimal inhibitory effect
Compound: COc1ccc(N=Nc2c(N)nc(N)nc2N)cc1 [Compound 2d, 5-((4-methoxyphenyl)diazenyl) pyrimidine-2,4,6-triamine]

The remaining lines, values behind:

Compound: Nc1nc(N)c(N=Nc2ccccc2[N+](=O)[O-])c(Cl)n1 [Compound 1a, 6-chloro-5-((2-nitrophenyl)diazenyl) pyrimidine-2,4-diamine]
band intensity on zymogram (inhibitory effect on tyrosinase activity) (tyrosinase): lightest bands

Compound: Nc1nc(N)c(N=Nc2ccc([N+](=O)[O-])cc2)c(Cl)n1 [Compound 1b, 6-chloro-5-((4-nitrophenyl)diazenyl) pyrimidine-2,4-diamine]
inhibition at 30 µM (mushroom tyrosinase [1]): 23.7%

Compound: Cc1cc(=O)[nH]c(=S)[nH]1 [methylthiouracil]
IC50 (mushroom tyrosinase [2]): 142 µM
Inhibition type (mushroom tyrosinase [2]): noncompetitive inhibitors

Compound: O=c1cc[nH]c(=S)[nH]1 [thiouracil]
IC50 (mushroom tyrosinase [2]): 128 µM
Inhibition type (mushroom tyrosinase [2]): noncompetitive inhibitors

From paper PMC6635827 (Drug Design, Development and Therapy, 2019)
